Laboratory results reported in the supplement of paper PMC10307832.

Assays:
Assay in all cases: relative viability (nuclei count vs DMSO), 5 days (fraction); higher = more cells survive
MK-8033 + Phenformin = compound: Cn1cc(-c2cnc3ccc4ccc(CS(=O)(=O)NCc5ccccn5)cc4c(=O)c3c2)cn1 [MK-8033] + N=C(N)NC(=N)NCCc1ccccc1 [Phenformin] (partner 250 µM)
How it was run: (§1)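 Medians of duplicate plates are given as relative viability. That measure is the nuclei count in treated wells divided by the count in vehicle wells. Counts were taken on 4× images of lung cancer cell lines in 1536-well plates, 5 days after pin-tool dosing the day after seeding with one drug alone or a fixed anchor-drug dose plus five library-drug doses (not always all listed) in √10 steps.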

Irinotecan + AZD7762 = compound: CCc1c2c(nc3ccc(OC(=O)N4CCC(N5CCCCC5)CC4)cc13)-c1cc3c(c(=O)n1C2)COC(=O)[C@]3(O)CC [Irinotecan] + NC(=O)Nc1cc(-c2cccc(F)c2)sc1C(=O)N[C@H]1CCCNC1 [AZD7762] (partner 0.2 µM)
How it was run: as §1

RU-SKI 43 + OSI-027 = compound: CC[C@@H](C)CNCC(=O)N1CCC2=C([C@@H]1COC3=CC=CC(=C3)C)C=CS2 [RU-SKI 43] + COc1cccc2cc(-c3nc([C@H]4CC[C@H](C(=O)O)CC4)n4ncnc(N)c34)[nH]c12 [OSI-027] (partner 0.5 µM)
How it was run: as §1

MK-8033 + OSI-027 = compound: Cn1cc(-c2cnc3ccc4ccc(CS(=O)(=O)NCc5ccccn5)cc4c(=O)c3c2)cn1 [MK-8033] + COc1cccc2cc(-c3nc([C@H]4CC[C@H](C(=O)O)CC4)n4ncnc(N)c34)[nH]c12 [OSI-027] (partner 0.5 µM)
How it was run: as §1

## NCI-H650
MK-8033 + Phenformin; first compound 0.02 µM
  relative viability: 0.441
MK-8033 + Phenformin; first compound 0.06325 µM
  relative viability: 0.445
MK-8033 + Phenformin; first compound 0.2 µM
  relative viability: 0.464
MK-8033 + Phenformin; first compound 0.6325 µM
  relative viability: 0.437
MK-8033 + Phenformin; first compound 2 µM
  relative viability: 0.47
Irinotecan + AZD7762; first compound 0.6325 µM
  relative viability: 0.722
Irinotecan + AZD7762; first compound 2 µM
  relative viability: 1.09
Irinotecan + AZD7762; first compound 6.325 µM
  relative viability: 0.309
Irinotecan + AZD7762; first compound 20 µM
  relative viability: 0.217
RU-SKI 43 + OSI-027; first compound 0.1 µM
  relative viability: 0.496
RU-SKI 43 + OSI-027; first compound 0.3162 µM
  relative viability: 0.467
RU-SKI 43 + OSI-027; first compound 1 µM
  relative viability: 0.643
RU-SKI 43 + OSI-027; first compound 3.162 µM
  relative viability: 0.494
RU-SKI 43 + OSI-027; first compound 10 µM
  relative viability: 0.565
MK-8033 + OSI-027; first compound 0.02 µM
  relative viability: 0.539
MK-8033 + OSI-027; first compound 0.06325 µM
  relative viability: 0.527
MK-8033 + OSI-027; first compound 0.2 µM
  relative viability: 0.491
MK-8033 + OSI-027; first compound 0.6325 µM
  relative viability: 0.503
MK-8033 + OSI-027; first compound 2 µM
  relative viability: 0.554

## NCI-H441
MK-8033 + Phenformin; first compound 0.02 µM
  relative viability: 0.997
MK-8033 + Phenformin; first compound 0.06325 µM
  relative viability: 0.739
MK-8033 + Phenformin; first compound 0.2 µM
  relative viability: 0.645
MK-8033 + Phenformin; first compound 0.6325 µM
  relative viability: 0.955
MK-8033 + Phenformin; first compound 2 µM
  relative viability: 0.732
Irinotecan + AZD7762; first compound 0.6325 µM
  relative viability: 0.964
Irinotecan + AZD7762; first compound 2 µM
  relative viability: 0.411
Irinotecan + AZD7762; first compound 6.325 µM
  relative viability: 0.277
Irinotecan + AZD7762; first compound 20 µM
  relative viability: 0.288
RU-SKI 43 + OSI-027; first compound 0.1 µM
  relative viability: 0.677
RU-SKI 43 + OSI-027; first compound 0.3162 µM
  relative viability: 0.511
RU-SKI 43 + OSI-027; first compound 1 µM
  relative viability: 0.665
RU-SKI 43 + OSI-027; first compound 3.162 µM
  relative viability: 0.6
RU-SKI 43 + OSI-027; first compound 10 µM
  relative viability: 0.481
MK-8033 + OSI-027; first compound 0.02 µM
  relative viability: 0.653
MK-8033 + OSI-027; first compound 0.06325 µM
  relative viability: 0.597
MK-8033 + OSI-027; first compound 0.2 µM
  relative viability: 0.698
MK-8033 + OSI-027; first compound 0.6325 µM
  relative viability: 0.788
MK-8033 + OSI-027; first compound 2 µM
  relative viability: 0.469

## NCI-H1944
MK-8033 + Phenformin; first compound 0.02 µM
  relative viability: 0.186
MK-8033 + Phenformin; first compound 0.06325 µM
  relative viability: 0.159
MK-8033 + Phenformin; first compound 0.2 µM
  relative viability: 0.19
MK-8033 + Phenformin; first compound 0.6325 µM
  relative viability: 0.198
MK-8033 + Phenformin; first compound 2 µM
  relative viability: 0.181
Irinotecan + AZD7762; first compound 0.6325 µM
  relative viability: 0.414
Irinotecan + AZD7762; first compound 2 µM
  relative viability: 0.276
Irinotecan + AZD7762; first compound 6.325 µM
  relative viability: 0.21
Irinotecan + AZD7762; first compound 20 µM
  relative viability: 0.153
RU-SKI 43 + OSI-027; first compound 0.1 µM
  relative viability: 0.428
RU-SKI 43 + OSI-027; first compound 0.3162 µM
  relative viability: 0.397
RU-SKI 43 + OSI-027; first compound 1 µM
  relative viability: 0.503
RU-SKI 43 + OSI-027; first compound 3.162 µM
  relative viability: 0.445
RU-SKI 43 + OSI-027; first compound 10 µM
  relative viability: 0.404
MK-8033 + OSI-027; first compound 0.02 µM
  relative viability: 0.436
MK-8033 + OSI-027; first compound 0.06325 µM
  relative viability: 0.292
MK-8033 + OSI-027; first compound 0.2 µM
  relative viability: 0.4
MK-8033 + OSI-027; first compound 0.6325 µM
  relative viability: 0.4
MK-8033 + OSI-027; first compound 2 µM
  relative viability: 0.404

## NCI-H838
MK-8033 + Phenformin; first compound 0.02 µM
  relative viability: 0.622
MK-8033 + Phenformin; first compound 0.06325 µM
  relative viability: 0.572
MK-8033 + Phenformin; first compound 0.2 µM
  relative viability: 0.524
MK-8033 + Phenformin; first compound 0.6325 µM
  relative viability: 0.555
MK-8033 + Phenformin; first compound 2 µM
  relative viability: 0.543
Irinotecan + AZD7762; first compound 0.6325 µM
  relative viability: 0.887
Irinotecan + AZD7762; first compound 2 µM
  relative viability: 0.787
Irinotecan + AZD7762; first compound 6.325 µM
  relative viability: 0.749
Irinotecan + AZD7762; first compound 20 µM
  relative viability: 0.645
RU-SKI 43 + OSI-027; first compound 0.1 µM
  relative viability: 0.431
RU-SKI 43 + OSI-027; first compound 0.3162 µM
  relative viability: 0.264
RU-SKI 43 + OSI-027; first compound 1 µM
  relative viability: 0.355
RU-SKI 43 + OSI-027; first compound 3.162 µM
  relative viability: 0.417
RU-SKI 43 + OSI-027; first compound 10 µM
  relative viability: 0.38
MK-8033 + OSI-027; first compound 0.02 µM
  relative viability: 0.374
MK-8033 + OSI-027; first compound 0.06325 µM
  relative viability: 0.368
MK-8033 + OSI-027; first compound 0.2 µM
  relative viability: 0.361
MK-8033 + OSI-027; first compound 0.6325 µM
  relative viability: 0.407
MK-8033 + OSI-027; first compound 2 µM
  relative viability: 0.412
